The results in this text go back to US8198285B2, “Pyrazine derivatives” (Astrazeneca AB, priority 2010, dated 2012).

In one data set the test system is rat bone marrow. Here is the method: 3-amino-6-(4-{3-[(3-methoxypropyl)amino]propyl}phenyl)-N-pyridin-3-ylpyrazine-2-carboxamide mono-besylate was also tested in an in vivo rat genotoxicity micronucleus study. The objective of this study was to investigate whether two oral doses of 3-amino-6-(4-{3-[(3-methoxypropyl)amino]propyl}phenyl)-N-pyridin-3-ylpyrazine-2-carboxamide mono-besylate increased the frequency of micronucleated immature erythrocytes (MIE) in rat bone marrow.
3-amino-6-(4-{3-[(3-methoxypropyl)amino]propyl}phenyl)-N-pyridin-3-ylpyrazine-2-carboxamide mono-besylate was administered to groups of 7 male Wistar Han rats, approximately 10 weeks old at dosing. Groups were given two doses of 0, 25, 125 and 250 mg/kg free-base equivalent (0, 59.5, 297 and 595 umol/kg) 24 hours apart and sampled for bone marrow analysis 24 hours after the second dose. Control rats were dosed with vehicle, 0.5% w/v hydroxypropyl methylcellulose and 0.1% w/v polysorbate 80 in phosphate buffered saline.
Animals were sacrificed 24 hours after the second dose and bone marrow smears prepared, fixed and stained with acridine orange. For each animal, 2000 immature erythrocytes (IE) were scored for the incidence of micronucleated cells (MIE) and the ratio of IE to mature erythrocytes (E) was determined in 1000 cells. In order to act as a quality control procedure, 6 slides from the bone-marrow of rats treated with cyclophosphamide at 20 mg/kg (72 umol/kg) in a previous study were included with the slides from the treated animals prior to staining and coding.

Data set [1] concerns β-catenin accumulation in the nucleus of murine C3H/10T1/2 cells. Put plainly: Cellular beta-catenin stabilisation assay, Test (b). Format: cell-based. Conditions: Mus musculus, 24 hours, read-out: EC50 versus cellular β-catenin accumulation in the nucleus of murine C3H/10T1/2 cells. Here is the method: This assay uses an imaging based approach to measure the ability of test compounds to promote Beta-catenin stabilisation in the nucleus of C3H10T1/2 cells. Beta-catenin stabilisation is an indicator of GSK3β inhibition.
A C3H10T1/2 mouse clone 8 fibroblast cell line (American Type Culture Collection (ATCC, USA; catalogue number CRL 226) was routinely maintained at 37° C. with 5% CO2 in Basal Medium Eagle (BME, Invitrogen; Paisley, UK; catalogue number 41010) containing 10% (v/v) foetal bovine serum (FBS, Invitrogen, Paisley; UK; catalogue number 10270) and 2 mM L-glutamine (Invitrogen, Paisley, UK; catalogue number 25030024). For the assay, the cells were detached from the culture flask with ‘Accutase’ (Innovative Cell Technologies Inc., San Diego, USA; catalogue number AT104) using standard tissue culture methods and re-suspended in assay media comprising of BME containing 5% (v/v) FBS and 2 mM L-glutamine to give 55,555 cells per ml. Then, 90 μl of this solution was seeded into each well of a clear-bottom 96 well tissue culture plate (Perkin Elmer Viewplate; catalogue number 6005182) using a Multidrop Combi Dispenser (Thermo Fisher Scientific, Loughborough, UK) to give 5,000 cells per well. Plates were incubated overnight at 37° C. with 5% CO2 to allow the cells to adhere to the wells. Test compounds were prepared as 10 mM stock solutions in dimethylsulphoxide (DMSO) (Sigma-Aldrich; Poole, UK, catalogue number 49442-9) and serially diluted in DMSO. A Multidrop Combi was used to dispense 245 μl of pre-warmed assay media into a 96 well plate (Thermo Fisher Scientific, Loughborough, UK; catalogue number 50823925) before 5 μl of serially diluted compound was added to this intermediate plate. After mixing, 10 μl of each compound concentration was added to the cell plates. The total dilution factor from DMSO stock was 500 times. Control cells received either DMSO (0.2% v/v final concentration) or 10 μM positive control compound. The cells were incubated for 24 hours at 37° C. with 5% CO2.
After compound treatment the cells were fixed by the addition of 100 μl of 8% w/v paraformaldehyde (Sigma-Aldrich, Poole, UK; catalogue number P6148), directly into the assay plate wells. The cells were incubated at ambient temperature with fixative for 30 minutes before washing 3 times with 100 μl phosphate-buffered saline (PBS, Sigma-Aldrich; catalogue number D8537). […] The cells were then washed 3 times in 100 μl of PBS before the plates were sealed ready for image capture. Fluorescent images were captured and quantified using the Incell Analyser 3000 (GE Healthcare, USA). […]

A further data set concerns the target T1, human GSK3β enzyme (Homo sapiens, UniProt P49841).
T1 construct: His6 (N); purchased Millipore 14-306; host or cells: baculovirus / Sf21 insect cells
Kind of data set: In vitro GSK3β kinase assay (FRET, Z'-LYTE), Test (a). Format: biochemical. To be noted: read-out: IC50 versus human GSK3β enzyme. An excerpt:
This biochemical assay used a Fluorescence Resonance Energy Transfer (FRET)-based, coupled-enzyme format to determine the ability of test compounds to inhibit substrate phosphorylation by recombinant GSK3β serine/threonine kinase (Kleman-Leyer, K. et al. Drug Disc. Devel. 2003, 6:81-2). The substrate used in this assay was Z′-LYTE™ ser/Thr 9 peptide and the FRET assay kit was obtained from Invitrogen (Paisley, UK, catalogue number PV3324). N-terminal His6-tagged recombinant human GSK313, with an H350 L mutation, was expressed in baculovirus in Sf21 insect cells, purified and obtained from Millipore (Billerica, Mass., USA, catalogue number 14-306 Human).
Test compounds were prepared as 10 mM stock solutions in dimethylsulphoxide (DMSO) and diluted in DMSO as required. Aliquots (2.5 μl) of compound dilutions were added to the wells of an Optiplate-F PerkinElmer 384-well plate (Massachusetts, USA, catalogue number 6007270). Control wells that produced a maximum signal corresponding to maximum enzyme activity were created by using 100% phosphorylated peptide obtained from Invitrogen (Paisley, UK, catalogue number PV3326). A 5 μl aliquot of 100% phosphorylated peptide (100 μM in 1.33× kinase buffer) was added to all maximum control wells. 2.5 μl of 4% DMSO solution (v/v) in 1.33× kinase buffer was added to maximum control wells. Control wells that produced a minimum signal corresponding to 100% inhibited enzyme were created by adding 2.5 μl of 40 μM Staurosporine in 1.33× kinase buffer containing 4% DMSO (v/v). A 5 μl mixture of GSK3β (100 ng/μl) enzyme and non-phosphorylated substrate (Z-LYTE™ ser/Thr 9 peptide, 100 μM) in a 1.33× kinase buffer solution was added to each well except maximum control wells and the assay plate centrifuged at 270 g for 1 minute. The kinase buffer used 1.33× was obtained from Invitrogen (Paisley, UK, catalogue number PV3189) and contained 67 mM HEPES (pH 7.5), 13 mM MgCl2, 1.3 mM EGTA, 0.01% BRIJ-35. Then 2.5 μl adenosine triphosphate (28 μM) in kinase buffer was added per well, centrifuged at 270 g for 1 minute and then the assay plate was shaken for 1 hour at room temperature. A proprietary development solution was prepared by adding 58 μl of development reagent A (Invitrogen, Paisley, UK, catalogue number PV3297) to 2142 μl of development reagent B (Invitrogen, Paisley, UK, catalogue number P3127). […]
The resultant signals arising from laser light excitation at 400 nm were read using a Perkin Elmer Envision spectrophotometer (Perkin Elmer, Massachusetts, USA). […] A ratiometric method, which calculates the ratio (the Emission Ratio) of donor emission to acceptor emission after excitation of the donor fluorophore at 400 nm, quantitates reaction progress, as shown in the equation below. […]

Where a name gives a salt, the structure may show the parent alone.

T1 sequence (P49841 whole entry): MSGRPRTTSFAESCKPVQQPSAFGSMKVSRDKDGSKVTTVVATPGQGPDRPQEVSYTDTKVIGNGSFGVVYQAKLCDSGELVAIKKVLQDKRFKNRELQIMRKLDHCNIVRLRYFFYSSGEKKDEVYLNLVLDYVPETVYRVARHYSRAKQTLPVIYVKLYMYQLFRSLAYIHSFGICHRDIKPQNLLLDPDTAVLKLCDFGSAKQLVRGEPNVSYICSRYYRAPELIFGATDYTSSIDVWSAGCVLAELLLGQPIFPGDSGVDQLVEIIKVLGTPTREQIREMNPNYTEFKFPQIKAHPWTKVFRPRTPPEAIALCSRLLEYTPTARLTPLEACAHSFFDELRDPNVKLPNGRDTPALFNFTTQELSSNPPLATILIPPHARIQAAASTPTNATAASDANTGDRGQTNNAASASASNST

In the case of `O=P1(N(CCCl)CCCl)NCCCO1` (stereo not drawn) [cyclophosphamide, reference compound], the “Incidence of MIE compared with the vehicle control values” in the data set with rat bone marrow (quality control slides, rats given 20 mg/kg in a previous study) is “significantly increased”. On to `COCCCNCCCc1ccc(-c2cnc(N)c(C(=O)Nc3cccnc3)n2)cc1.O=S(=O)(O)c1ccccc1` [3-amino-6-(4-{3-[(3-methoxypropyl)amino]propyl}phenyl)-N-pyridin-3-ylpyrazine-2-carboxamide mono-besylate], for which the “Maximum tolerated dose (highest dose)” value in the data set on rat bone marrow (two oral doses 24 hours apart, male Wistar Han rats) is on record as 250 mg/kg free-base equivalent. For the same compound, the “Incidence of micronucleated immature erythrocytes (MIE) above the vehicle control” value in the data set on rat bone marrow (two oral doses up to 250 mg/kg free-base equivalent 24 hours apart, bone marrow 24 hours after second dose) is on record as “no biologically or statistically significant increases”.

What is called IC50 is the midpoint of a concentration-inhibition curve. With `COCCNCCCc1ccc(-c2cnc(N)c(C(=O)Nc3cccnc3)n2)cc1` [Example 5, 3-Amino-6-(4-{3-[(2-methoxyethyl)amino]propyl}phenyl)-N-pyridin-3-ylpyrazine-2-carboxamide tri-hydrochloride], the EC50 in data set [1] is approximately 902 nM. Besides, the 50% inhibitory concentration (IC50) on human GSK3β enzyme was approximately 21 nM.

On to `COCCCNCCc1ccc(-c2cnc(N)c(C(=O)Nc3cccnc3)n2)cc1` [Example 6, 3-Amino-6-(4-{2-[(3-methoxypropyl)amino]ethyl}phenyl)-N-pyridin-3-ylpyrazine-2-carboxamide], for which the EC50 in data set [1] was approximately 902 nM. The IC50 at human GSK3β enzyme was approximately 48 nM.

As to `COCCNCCc1ccc(-c2cnc(N)c(C(=O)Nc3cccnc3)n2)cc1` [Example 7, 3-Amino-6-(4-{2-[(2-methoxyethyl)amino]ethyl}phenyl)-N-pyridin-3-ylpyrazine-2-carboxamide tri-hydrochloride], the EC50 in data set [1] was approximately 3890 nM. Besides, the IC50 on human GSK3β enzyme is approximately 80 nM.
